Assay [1] in a line: Release test (measurement of leakage; membrane-disruption function). To be noted: for pH 5.0 Leakage (%) Lb5.0 Amphipathic substance alone / pH 7.4 Leakage (%) Lb7.4 Amphipathic substance alone: labelled amphipathic substance alone; for pH 5.0 Leakage (%) La5.0 pH-sensitive compound alone / pH 7.4 Leakage (%) La7.4 pH-sensitive compound alone: labelled pH-sensitive compound alone. On the procedure: The term “membrane-disruption function” means a function to bring about release in the release test. The release test described herein is a test consisting of the steps of adding liposomes (dispersion) embracing an aqueous solution containing a quenching substance and a fluorescent substance and a dispersion of an evaluation sample to a properly pH-adjusted aqueous solution, incubating the resulting aqueous solution at 37° C. for 90 minutes or 30 minutes, and measuring the intensity of fluorescence of the incubated aqueous solution. This method makes it possible to measure the amount of the fluorescent substance which has been released from the liposomes, and to confirm the membrane-disruption function of the pH-sensitive carrier. Note that the release test will be described in more detail in the Examples to be described later.
The leakage was evaluated according to the method described in K. Kono et al., Bioconjugate Chem. 2008 19 1040-1048. The evaluation was performed using EYPC liposomes which contain Pyranine as a fluorescent substance and DPX as a quencher.
3,000 nmol of EYPC dissolved in chloroform was measured and placed in a 10-mL eggplant-shaped flask, and the EYPC was made into thin film by means of a rotary evaporator. To the flask was added 500 μL of a Pyranine solution (Pyranine: 35 mM, DPX: 50 mM, MES: 25 mM, pH 7.4), followed by dispersion using an ultrasonic irradiator (USC-J), and then the resulting dispersion was passed through a polycarbonate film having a pore diameter of 100 nm by use of an extruder, so as to make the particle diameter uniform. The resulting dispersion underwent substitution of the outer aqueous layer using MES Buffer and G100 column, to obtain a dispersion of EYPC liposomes embracing the fluorescent substance. The concentration of the phospholipid was determined using phospholipid C-test Wako, and it was adjusted with MES Buffer so that phospholipid became 1.0 mmol/L.
20 μL of the dispersion of EYPC liposomes adjusted in concentration and 20 μL of an evaluation sample dispersion were added to 2960 μL of pH-adjusted MES Buffer, and the resulting mixture was subjected to incubation at 37° C. for 90 or 30 minutes (Values resulting from incubation for 90 minutes are adopted in Examples, unless otherwise specified.). Fluorescence at Ex461 nm and Em512 nm was observed by use of a spectrophotometer FP-6500 to monitor the leakage.
Note that the leakage was calculated assuming that the value in the case of using the dispersion alone of EYPC liposomes is 0% and the value in the case of adding 30 μL of 10-fold diluted Triton-X100 is 100%. Specifically, the leakage was calculated according to the following formula. Note that in the following formula, L represents the intensity of fluorescence measured, L0 represents the intensity of fluorescence of only the dispersion of EYPC liposomes embracing the fluorescent substance, and L100 represents the intensity of fluorescence in the case of adding Triton-X100.
First, the influence on the effect of promoting the membrane-disruption function was examined. […] After incubating the evaluation samples overnight, part (20 μL) of each evaluation sample was put to a release test. The release test was conducted according to the above-described release test.

For assay [2], the system named is cell-mediated immunity (CTL). As to the kind of experiment: Induction of cell-mediated immunity (CTL) in immunized mice, IFNγ ELIspot method on spleen cells. In kind it is in vivo, C57BL/6N mouse.
Method: Administration was performed under anesthesia. In the case of subcutaneous administration, it is carried out by subcutaneous injection, 100 μL/head, at one position on the back. […] As for the pH-sensitive carrier, a fundamental dose concentration for the amphipathic substance was 100 nmol/head, that for the pH-sensitive compound was 10 to 640 nmol/head, and part thereof was administered in diluted conditions. As the antigen, OVA protein or OVA peptide was used, the dose being 80 μg/head. […] In the case of evaluating cell-mediated immunity, administration was performed once and assay was conducted seven days after the administration.
The mouse was euthanized on the seventh day after the last administration and had its spleen extracted. After addition of 3.0 mL of RPMI medium containing 10% serum, the spleen was treated by the BD Falcon cell strainer, to obtain a suspension of cells. The cells were subjected to hemolysis with RBC lysis buffer, followed by washing with RPMI medium containing 10% serum. The cells were dispersed into RPMI medium containing 10% serum, after which the number of cells was counted, and a dispersion of spleen cells was obtained.
The ELIspot method was carried out by using the Mouse IFNγ ELISPOT Set. One day before cell inoculation, the 96-well ELispot plate was allowed to adsorb the detection antibody attached to the kit, to make the plate. The thus made plate was washed with RPMI medium containing 10% serum, after which 200 μL of 10% serum-containing RPMI medium was added thereto, and the plate was left to stand at 37° C. for two hours for blocking. The plate was washed with 10% serum-containing RPMI medium. In the case where the antigen undergoes restimulation, 100 μL of 10% serum-containing RPMI medium containing 40 μg/mL of OVA peptide was added to the plate. […]
The candidate substances were all used in an amount of 10 μg per mouse, and OVA protein was used as the antigen in an amount of 80 μg per mouse. […] Induction of cell-mediated immunity was evaluated according to the ELispot method described hereinabove. […]
[3] abbreviates: subcutaneous, once, assay after seven days, candidate substance/alum 10 μg, OVA protein 80 μg per mouse, carrier where used 100 nmol DLPC + 160 nmol deoxycholic acid, restimulation with OVA peptide.

In the case of `Cc1c(C)c2c(c(C)c1O)CCC(C)(CCCC(C)CCCC(C)CCCC(C)C)O2` (racemic) [Tocopherol, DL-α-tocopherol], in assay [1] (pH 5.0), the “pH 5.0 Leakage (%) Lb5.0 Amphipathic substance alone” value amounted to 1.2%. Besides, the “pH 7.4 Leakage (%) Lb7.4 Amphipathic substance alone” value in assay [1] was 1.7%. In addition, the “induction of cell-mediated immunity (spot formation, ELIspot)” value (from here on “induction of cell-mediated immunity”) in assay [2] (mouse, in vivo, sc) is on record as “did not induce cell-mediated immunity”.

As for `CC(=O)Oc1c(C)c(C)c2c(c1C)CCC(C)(CCC[C@H](C)CCC[C@H](C)CCCC(C)C)O2` (mixture of isomers) [tocopherol acetate, DL-α-tocopherol acetate, reference compound], in assay [2] (setting [3]), the “induction of cell-mediated immunity” value was “did not induce cell-mediated immunity”.

On to `C[C@H](CCC(=O)O)[C@H]1CC[C@H]2[C@@H]3[C@H](O)C[C@@H]4C[C@H](O)CC[C@]4(C)[C@H]3CC[C@]12C` [Chenodeoxycholic acid], for which the “pH 5.0 Leakage (%) La5.0 pH-sensitive compound alone” value in assay [1] (pH 5.0) amounted to 3.1%. For the same molecule, the “pH 7.4 Leakage (%) La7.4 pH-sensitive compound alone” value in assay [1] came to 1.1%.

As to `CCCCCCCCCC(=O)OC[C@H](COP(=O)([O-])OCC[N+](C)(C)C)OC(=O)CCCCCCCCC` [DDPC, 1,2-didecanoyl-sn-glycero-3-phosphatidylcholine], the “pH 5.0 Leakage (%) Lb5.0 Amphipathic substance alone” value in assay [1] (pH 5.0) is recorded as 10.1%. For the same molecule, the “pH 7.4 Leakage (%) Lb7.4 Amphipathic substance alone” value in assay [1] worked out at 8.4%.

For `CCCCCCCCCCCC(=O)OC[C@H](COP(=O)([O-])OCC[N+](C)(C)C)OC(=O)CCCCCCCCCCC` [DLPC, 1,2-dilauroyl-sn-glycero-3-phosphatidylcholine], in assay [1] (pH 5.0, DLPC alone), the “pH 5.0 Leakage (%) Lb5.0 Amphipathic substance (DLPC) alone” value turned out to be 1.9%.

As for `CCCCCCCCCCCCCCCCCC(=O)OCC(CO)OC(=O)CCCCCCCCCCCCCCCCC` (centres unmarked) [Glycerol distearate, glycerol distearate], the “pH 5.0 Leakage (%) Lb5.0 Amphipathic substance alone” value in assay [1] (pH 5.0) is on record as 4.0%. In assay [1], the “pH 7.4 Leakage (%) Lb7.4 Amphipathic substance alone” value is reported as 0.3%.

Take `CCCCCCCC/C=C\CCCCCCCC(=O)OCC(O)CO` (centres unmarked) [Glycerol monooleate, glycerol monooleate]: the “pH 5.0 Leakage (%) Lb5.0 Amphipathic substance alone” value in assay [1] (pH 5.0) came out at 6.0%. Further, the “pH 7.4 Leakage (%) Lb7.4 Amphipathic substance alone” value in assay [1] came to 4.1%.

In the case of `CC(CCC(=O)NCC(=O)O)C1CCC2C3CCC4CC(O)CCC4(C)C3CC(O)C12C` (centres unmarked) [Glycodeoxycholic acid], in assay [1] (pH 5.0), the “pH 5.0 Leakage (%) La5.0 pH-sensitive compound alone” value is on record as 5.9%. Further, the “pH 7.4 Leakage (%) La7.4 pH-sensitive compound alone” value in assay [1] turned out to be 1.6%.

As for `CC1(C)[C@@H](O[C@H]2O[C@H](C(=O)O)[C@@H](O)[C@H](O)[C@H]2O[C@@H]2O[C@H](C(=O)O)[C@@H](O)[C@H](O)[C@H]2O)CC[C@]2(C)[C@H]3C(=O)C=C4[C@@H]5C[C@@](C)(C(=O)O)CC[C@]5(C)CC[C@@]4(C)[C@]3(C)CC[C@@H]12` [Glycyrrhizinic acid], in assay [1] (pH 5.0), the “pH 5.0 Leakage (%) Lb5.0 Amphipathic substance alone” value is given as 4.0% and the “pH 5.0 Leakage (%) La5.0 pH-sensitive compound alone” value amounted to 3.0%. Also, in assay [1], the “pH 7.4 Leakage (%) Lb7.4 Amphipathic substance alone” value stood at 0.3% and the “pH 7.4 Leakage (%) La7.4 pH-sensitive compound alone” value was found to be 0.8%.

For the molecule `C[C@H](CCC(=O)O)[C@H]1CC[C@H]2[C@@H]3C[C@H](O)[C@@H]4C[C@H](O)CC[C@]4(C)[C@H]3CC[C@]12C` [Hyodeoxycholic acid], the “pH 5.0 Leakage (%) La5.0 pH-sensitive compound alone” value in assay [1] (pH 5.0) stood at 2.8%. Besides, in assay [1], the “pH 7.4 Leakage (%) La7.4 pH-sensitive compound alone” value is 0.6%.

As for `CCCCCCCCCCCC(=O)OCC(O)COC(=O)CCCCCCCCCCC` [α,α′-dilaurin], the “pH 5.0 Leakage (%) Lb5.0 Amphipathic substance alone” value in assay [1] (pH 5.0) came to 0.8%. Further, the “pH 7.4 Leakage (%) Lb7.4 Amphipathic substance alone” value in assay [1] turned out to be 1.0%.

Take “Polyoxyethylene 10 castor oil [Peg (10) castor oil]”: in assay [1] (pH 5.0), the “pH 5.0 Leakage (%) Lb5.0 Amphipathic substance alone” value was found to be 6.2%. Moreover, in assay [1], the “pH 7.4 Leakage (%) Lb7.4 Amphipathic substance alone” value came to 3.4%.

As for “polyoxyethylene sorbitan monolauric acid ester [Tween 20]”, the “pH 5.0 Leakage (%) Lb5.0 Amphipathic substance alone” value in assay [1] (pH 5.0) is 48.8%. The “pH 7.4 Leakage (%) Lb7.4 Amphipathic substance alone” value in assay [1] stood at 50.4%.

Take “polyoxyethylene sorbitan monooleic acid ester [Tween 80]”: the “pH 5.0 Leakage (%) Lb5.0 Amphipathic substance alone” value in assay [1] (pH 5.0) worked out at 1.6%. Besides, the “pH 7.4 Leakage (%) Lb7.4 Amphipathic substance alone” value in assay [1] was found to be 0.6%.

For “polyoxyethylene sorbitan monopalmitic acid ester [Tween 40]”, the “pH 5.0 Leakage (%) Lb5.0 Amphipathic substance alone” value in assay [1] (pH 5.0) was 11.5%. The “pH 7.4 Leakage (%) Lb7.4 Amphipathic substance alone” value in assay [1] is 8.3%.

With “polyoxyethylene sorbitan monostearic acid ester [Tween 60]”, in assay [1] (pH 5.0), the “pH 5.0 Leakage (%) Lb5.0 Amphipathic substance alone” value stood at 6.7%. Besides, in assay [1], the “pH 7.4 Leakage (%) Lb7.4 Amphipathic substance alone” value turned out to be 3.8%.

Take sorbitan monooleate [Span80]: the “pH 5.0 Leakage (%) Lb5.0 Amphipathic substance alone” value in assay [1] (pH 5.0) is given as 7.3%. In assay [1], the “pH 7.4 Leakage (%) Lb7.4 Amphipathic substance alone” value came out at 4.4%.

Take sorbitan palimitic acid ester [Span40]: the “pH 5.0 Leakage (%) Lb5.0 Amphipathic substance alone” value in assay [1] (pH 5.0) was determined as 1.6%. Besides, the “pH 7.4 Leakage (%) Lb7.4 Amphipathic substance alone” value in assay [1] was 0.6%.

As for sorbitan stearic acid ester [Span60], in assay [1] (pH 5.0), the “pH 5.0 Leakage (%) Lb5.0 Amphipathic substance alone” value was 4.3%. In addition, the “pH 7.4 Leakage (%) Lb7.4 Amphipathic substance alone” value in assay [1] is on record as 1.6%.

For sorbitan trioleic acid ester [Span85], in assay [1] (pH 5.0), the “pH 5.0 Leakage (%) Lb5.0 Amphipathic substance alone” value is on record as 2.0%. The “pH 7.4 Leakage (%) Lb7.4 Amphipathic substance alone” value in assay [1] amounted to 1.8%.

Turning to sorbitan tristearic acid ester [Span65], the “pH 5.0 Leakage (%) Lb5.0 Amphipathic substance alone” value in assay [1] (pH 5.0) is listed as 4.2%. In addition, the “pH 7.4 Leakage (%) Lb7.4 Amphipathic substance alone” value in assay [1] is recorded as 1.5%.

B1: antigen alone: OVA protein (Ovalbumin, low endotoxin) administered alone as comparative sample (protein, UniProt P01012 2-386, looked up)
Ovalbumin: GSIGAASMEFCFDVFKELKVHHANENIFYCPIAIMSALAMVYLGAKDSTRTQINKVVRFDKLPGFGDSIEAQCGTSVNVHSSLRDILNQITKPNDVYSFSLASRLYAEERYPILPEYLQCVKELYRGGLEPINFQTAADQARELINSWVESQTNGIIRNVLQPSSVDSQTAMVLVNAIVFKGLWEKAFKDEDTQAMPFRVTEQESKPVQMMYQIGLFRVASMASEKMKILELPFASGTMSMLVLLPDEVSGLEQLESIINFEKLTEWTSSNVMEERKIKVYLPRMKMEEKYNLTSVLMAMGITDVFSSSANLSGISSAESLKISQAVHAAHAEINEAGREVVGSAEAGVDAASVSEEFRADHPFLFCIKHIATNAVLFFGRCVSP
modifications: low endotoxin
B1: in assay [2] (setting [3]), the “induction of cell-mediated immunity” value is given as “did not induce cell-mediated immunity”.

For the origin of these results see patent US20210030867A1, “ADJUVANT COMPOSITION CONTAINING ALUMINUM AND VACCINE COMPOSITION CONTAINING THE SAME” (TERUMO KABUSHIKI KAISHA, priority 2015, published 2021).
